What was measured:
[1] = AUClast in Sprague-Dawley rat at 2 mg/kg, iv and 3 mg/kg, po; format: ADME, organism-based; settings: plasma
[2] = Cmax in Sprague-Dawley rat at 2 mg/kg, iv and 3 mg/kg, po; format: ADME, organism-based; settings: in vivo
[3] = Oral bioavailability in Sprague-Dawley rat at 3 mg/kg; format: ADME, organism-based; settings: in vivo
[4] = Ratio of drug level in brain to plasma in Sprague-Dawley rat at 3 mg/kg, po after 2 hrs; format: ADME, organism-based; set-up: dose 3 mg/kg, route oral; settings: read-out: BPR
[5] = Volume of distribution at steady state in Sprague-Dawley rat at 2 mg/kg, iv and 3 mg/kg, po; format: ADME, organism-based; settings: in vivo, read-out: Vdss
[6] = Drug uptake in Sprague-Dawley rat brain at 3 mg/kg, po after 2 hrs; format: ADME, organism-based; set-up: dose 3 mg/kg, route oral; settings: read-out: Drug uptake
Rattus norvegicus = experiment: Toxicity in rat assessed as reduction in core temperature at 0.3 mg/kg, ip; format: organism-based; set-up: dose 0.3 mg/kg, route intraperitoneal; settings: in vivo
[7] = Cmax in Sprague-Dawley rat at 3 mg/kg, po after 0.4 hrs; format: ADME, organism-based; set-up: dose 3 mg/kg, route oral; settings: in vivo

CC(C)(CO)NC(=O)c1nn(-c2ccc(F)cc2F)c2c1C[C@H]1C[C@@H]21
AUC(0-t) [1]: 4480 ng·h/mL | Cmax [2]: 808 ng/mL | bioavailability [3]: 35.9% | Kp at 2 h [4]: 0.356 | Vd [5]: 0.851 L/kg | concentration at 2 h [6]: 623 ng/g

CCCCCCC(C)(C)c1ccc([C@@H]2C[C@H](O)CC[C@H]2CCCO)c(O)c1 [CP-55940]
T (Rattus norvegicus): > 2 °C

CC(C)(NC(=O)c1nn(C(C)(C)C)c2c1C[C@H]1C[C@@H]21)c1ccccc1
Cmax [7]: 33 ng/mL

From ChEMBL document CHEMBL3351614, “Discovery of 1a,2,5,5a-tetrahydro-1H-2,3-diaza-cyclopropa[a]pentalen-4-carboxamides as potent and selective CB2 receptor agonists” (Bioorg Med Chem Lett, 2015)
